Test results from patent US9675614B2, “PRMT5 inhibitors and uses thereof” (Epizyme, Inc., priority 2012, dated 2017).

Biological target: PRMT5/MEP50 (Homo sapiens (Human), UniProt O14744)
Experiment: PRMT5 Biochemical Assay (PRMT5/MEP50 enzyme assay on peptide substrate, 3H-SAM Flashplate)
Conditions: PRMT5/MEP50 biochemical assay; read-out: Biochemical IC50
Description: S-adenosylmethionine (SAM), S-adenosylhomocysteine (SAH), bicine, KCl, Tween20, dimethylsulfoxide (DMSO), bovine skin gelatin (BSG), and Tris(2-carboxyethyl)phosphine hydrochloride solution (TCEP) were purchased from Sigma-Aldrich at the highest level of purity possible. ^3H-SAM was purchase from American Radiolabeled Chemicals with a specific activity of 80 Ci/mmol. 384-well streptavidin Flashplates were purchased from PerkinElmer.
Peptide representative of human histone H4 residues 1-15 was synthesized with a C-terminal linker-affinity tag motif and a C-terminal amide cap by 21st Century Biochemicals. […] The sequence was Ac-[…][K-Biot]amide (SEQ ID NO.:3).
Full-length human MEP50 (NM_024102) clone was amplified from a human testis cDNA library incorporating a 5′ sequence encoding a 6-histidine tag (MHHHHHH) (SEQ ID NO.:5) fused directly to Arg 2 of MEP50. The amplified genes were subcloned into pENTR/D/TEV (Life Technologies) and subsequently transferred by Gateway™ attL×attR recombination to pDEST8 baculvirus expression vector (Life Technologies).
Recombinant baculovirus and Baculovirus-Infected Insect Cells (BIIC) were generated according to Bac-to-Bac kit instructions (Life Technologies) and Wasilko, 2006, respectively. Protein over-expression was accomplished by infecting exponentially growing Spodoptera frugiperda (SF9) cell culture at 1.2×10^6 cell/ml with a 5000 fold dilution of BIIC stock. Infections were carried out at 27° C. for 72 hours, harvested by centrifugation, and stored at −80° C. for purification.
Flag-PRMT5/6His-MeP50 was eluted with 300 mM Imidazole in the same buffer. […] Reference: Wasilko, D. J. and S. E. Lee: “TIPS: titerless infected-cells preservation and scale-up” Bioprocess J., 5 (2006), pp. 29-32.
General Procedure for PRMT5/MEP50 Enzyme Assays on Peptide Substrates.
The assays were all performed in a buffer consisting of 20 mM Bicine (pH=7.6), 1 mM TCEP, 0.005% BSG, and 0.002% Tween20, prepared on the day of use. Compounds in 100% DMSO (1 ul) were spotted into a polypropylene 384-well V-bottom plates (Greiner) using a Platemate Plus outfitted with a 384-channel head (Thermo Scientific). DMSO (1 ul) was added to Columns 11, 12, 23, 24, rows A-H for the maximum signal control and 1 ul of SAH, a known product and inhibitor of PRMT5/MEP50, was added to columns 11, 12, 23, 24, rows I-P for the minimum signal control. A cocktail (40 ul) containing the PRMT5/MEP50 enzyme and the peptide was added by Multidrop Combi (Thermo-Fisher). The compounds were allowed to incubate with PRMT5/MEP50 for 30 min at 25 degrees Celsius, then a cocktail (10 ul) containing ^3H-SAM was added to initiate the reaction (final volume=51 ul). The final concentrations of the components were as follows: PRMT5/MEP50 was 4 nM, ^3H-SAM was 75 nM, peptide was 40 nM, SAH in the minimum signal control wells was 100 uM, and the DMSO concentration was 1%. The assays were stopped by the addition of non-radioactive SAM (10 ul) to a final concentration of 600 uM, which dilutes the ^3H-SAM to a level where its incorporation into the peptide substrate is no longer detectable. 50 ul of the reaction in the 384-well polypropylene plate was then transferred to a 384-well Flashplate and the biotinylated peptides were allowed to bind to the streptavidin surface for at least 1 hour before being washed three times with 0.1% Tween20 in a Biotek ELx405 plate washer. The plates were then read in a PerkinElmer TopCount plate reader to measure the quantity of ^3H-labeled peptide bound to the Flashplate surface, measured as disintegrations per minute (dpm) or alternatively, referred to as counts per minute (cpm).
[formula] Where dpm=disintegrations per minute, cmpd=signal in assay well, and min and max are the respective minimum and maximum signal controls.
[formula] Where top and bottom are the normally allowed to float, but may be fixed at 100 or 0 respectively in a 3-parameter fit.

Chain of PRMT5/MEP50 (O14744 other isoform, or with tags, fused parts or gaps): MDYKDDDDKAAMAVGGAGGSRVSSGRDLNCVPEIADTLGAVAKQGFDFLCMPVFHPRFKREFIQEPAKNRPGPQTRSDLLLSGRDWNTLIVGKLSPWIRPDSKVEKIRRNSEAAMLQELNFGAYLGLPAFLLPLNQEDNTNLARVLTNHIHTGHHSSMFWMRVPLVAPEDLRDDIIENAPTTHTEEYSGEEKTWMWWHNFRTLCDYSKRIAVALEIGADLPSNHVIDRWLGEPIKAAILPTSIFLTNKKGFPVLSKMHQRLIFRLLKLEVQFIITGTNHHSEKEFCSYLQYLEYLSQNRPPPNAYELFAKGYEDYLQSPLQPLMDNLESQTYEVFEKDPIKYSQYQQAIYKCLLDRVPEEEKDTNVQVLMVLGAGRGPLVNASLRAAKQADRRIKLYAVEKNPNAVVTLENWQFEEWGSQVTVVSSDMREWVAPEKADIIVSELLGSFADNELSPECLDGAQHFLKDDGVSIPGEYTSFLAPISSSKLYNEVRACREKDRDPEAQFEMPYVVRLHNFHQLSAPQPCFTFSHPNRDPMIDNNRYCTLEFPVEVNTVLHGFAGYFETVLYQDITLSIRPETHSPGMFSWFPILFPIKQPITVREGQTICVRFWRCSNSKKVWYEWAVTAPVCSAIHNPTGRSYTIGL
Chain of PRMT5/MEP50 (Q9BQA1 other isoform, or with tags, fused parts or gaps partner): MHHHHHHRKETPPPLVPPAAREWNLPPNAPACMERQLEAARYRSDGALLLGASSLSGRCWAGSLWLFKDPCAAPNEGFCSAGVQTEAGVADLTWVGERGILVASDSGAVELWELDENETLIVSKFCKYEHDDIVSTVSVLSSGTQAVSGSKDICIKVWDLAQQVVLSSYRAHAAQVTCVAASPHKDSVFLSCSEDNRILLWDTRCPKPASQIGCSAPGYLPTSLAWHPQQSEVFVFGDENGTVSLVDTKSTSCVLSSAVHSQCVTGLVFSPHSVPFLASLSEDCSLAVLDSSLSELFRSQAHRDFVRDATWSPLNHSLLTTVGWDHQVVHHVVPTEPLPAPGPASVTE

| SMILES | IC50 |
| --- | --- |
| O=C(NCC(O)CN1CCc2ccccc2C1)c1cccc(NC2CCN(CC(F)(F)F)CC2)c1 (centres unmarked) [Compound 126] | < 100 nM |
| CN1CCN(Cc2cccc(C(=O)NCC(O)CN3CCc4ccccc4C3)c2)CC1 (centres unmarked) [Compound 30, N-(3-(3,4-dihydroisoquinolin-2(1H)-yl)-2-hydroxypropyl)-3-((4-methylpiperazin-1-yl)methyl)benzamide] | < 100 nM |
| CS(=O)(=O)Nc1cccc(C(=O)NCC(O)CN2CCc3ccccc3C2)c1 (centres unmarked) [Compound 24] | < 100 nM |
| CN1CCC(N(C)c2cccc(C(=O)NCC(O)CN3CCc4ccccc4C3)c2)C1 (centres unmarked) [Compound 132] | < 100 nM |
| C[C@H]1CC(Nc2cccc(C(=O)NC[C@H](O)CN3CCc4ccccc4C3)c2)CCO1 (some centres unmarked) [Compound 167] | < 100 nM |
| Cn1cc(C(=O)NC[C@H](O)CN2CCc3ccccc3C2)c2ccccc21 [Compound 246] | < 100 nM |
| O=C(NCC(O)CN1CCc2ccccc2C1)c1ccc(NC2CCN(CC(F)(F)F)CC2)cc1 (centres unmarked) [Compound 128] | < 100 nM |
| O=C(NC[C@H](O)CN1CCc2ccccc2C1)c1cc(NC2CCOCC2)ncn1 [Compound 193] | < 100 nM |
| O=C(NCC(O)CN1CCc2ccccc2C1)c1cccc(CO)c1 (centres unmarked) [Compound 151] | 101 to 1000 nM |
| O=C(NCC(O)CN1CCc2ccccc2C1)c1ccc(OC2CCNCC2)cc1 (centres unmarked) [Compound 104] | < 100 nM |
| O=C(NCC(O)CN1CCc2ccccc2C1)c1cccc(CN2CCNCC2)c1 (centres unmarked) [Compound 29] | < 100 nM |
| O=C(NCC(O)CN1CCc2ccccc2C1)c1cccc(NCCN2CCOCC2)c1 (centres unmarked) [Compound 61] | 101 to 1000 nM |
| CNC(=O)CNCc1cccc(C(=O)NCC(O)CN2CCc3ccccc3C2)c1 (centres unmarked) [Compound 117] | 101 to 1000 nM |
| CS(=O)(=O)N1CCC(Nc2cccc(C(=O)NCC(O)CN3CCc4ccccc4C3)c2)C1 (centres unmarked) [Compound 122] | < 100 nM |
| CN1CCC(N(C)c2cccc(C(=O)NCC(O)CN3CCc4ccccc4C3)c2)CC1 (centres unmarked) [Compound 131] | < 100 nM |
| CC(C)N1CCC(Oc2cccc(C(=O)NCC(O)CN3CCc4ccccc4C3)c2)C1 (centres unmarked) [Compound 135] | < 100 nM |
| CC(=O)N1CCC(Nc2cccc(C(=O)NCC(O)CN3CCc4ccccc4C3)c2)C1 (centres unmarked) [Compound 121] | < 100 nM |

| SMILES | IC50 |
| --- | --- |
| O=C(O)CN1CCN(Cc2cccc(C(=O)NCC(O)CN3CCc4ccccc4C3)c2)CC1 (centres unmarked) [Compound 157] | 101 to 1000 nM |
| O=C(NCC(O)CN1CCc2ccccc2C1)c1ccc(NC2CCOCC2)cc1 (centres unmarked) [Compound 66] | < 100 nM |
| Cc1ccc(NC2CCOC2)cc1C(=O)NCC(O)CN1CCc2ccccc2C1 (centres unmarked) [Compound 96] | < 100 nM |
| O=C(NCC(O)CN1CCc2ccccc2C1)c1cccc(NC2CCOC2)c1 (centres unmarked) [Compound 45, N-(3-(3,4-dihydroisoquinolin-2(1H)-yl)-2-hydroxypropyl)-3-((tetrahydrofuran-3-yl)amino)benzamide] | < 100 nM |
| O=C(NCC(O)CN1CCc2ccccc2C1)c1cccc(CN2CCN(CC(F)(F)F)CC2)c1 (centres unmarked) [Compound 92] | < 100 nM |
| O=C(NCC(O)CN1CCc2ccccc2C1)c1cccc(N2CCOCC2)c1 (centres unmarked) [Compound 14, N-(3-(3,4-dihydroisoquinolin-2(1H)-yl)-2-hydroxypropyl)-3-morpholinobenzamide] | < 100 nM |
| O=C(NCC(O)CN1CCc2ccccc2C1)c1cn[nH]c1-c1ccccc1 (centres unmarked) [Compound 112] | 101 to 1000 nM |
| CC(=O)NCCN1CCN(Cc2cccc(C(=O)NCC(O)CN3CCc4ccccc4C3)c2)CC1 (centres unmarked) [Compound 156] | < 100 nM |
| O=C(NCC(O)CN1CCc2ccccc2C1)c1cncc(NC2CCOCC2)n1 (centres unmarked) [Compound 75] | 101 to 1000 nM |
| O=C(NC[C@H](O)CN1CCc2ccccc2C1)c1ccnc(NCc2cccnc2)c1 [Compound 190] | < 100 nM |
| CS(=O)(=O)N1CCC(Oc2ccc(C(=O)NCC(O)CN3CCc4ccccc4C3)cc2)CC1 (centres unmarked) [Compound 108] | < 100 nM |
| O=C(NC[C@H](O)CN1CCc2ccccc2C1)c1ccnc(NC2CCOCC2)c1 [Compound 192] | < 100 nM |
| O=C(NCC(O)CN1CCc2ccccc2C1)c1ccnc(NC2CCOCC2)c1 (centres unmarked) [Compound 74] | < 100 nM |
| O=C(NCC(O)CN1CCc2ccccc2C1)c1cccc(NC2CCOCC2)n1 (centres unmarked) [Compound 73] | < 100 nM |
| CN(C)CCN(C)c1cc(C(=O)NC[C@H](O)CN2CCc3ccccc3C2)ccn1 [Compound 186] | < 100 nM |
| O=C(NCC(O)CN1CCc2ccccc2C1)c1ccc(-n2cncn2)cc1 (centres unmarked) [Compound 110] | < 100 nM |
| COc1cc(CN2CCN(C)CC2)cc(C(=O)NCC(O)CN2CCc3ccccc3C2)c1 (centres unmarked) [Compound 160] | < 100 nM |

Further lines, results first:

| IC50 | SMILES |
| --- | --- |
| < 100 nM | CNCCN(C)c1cc(C(=O)NC[C@H](O)CN2CCc3ccccc3C2)ccn1 [Compound 233] |
| < 100 nM | O=C(NC[C@H](O)CN1CCc2ccccc2C1)c1cccc2[nH]cnc12 [Compound 241] |
| < 100 nM | O=C(NC[C@H](O)CN1CCc2ccccc2C1)c1cc2c(F)cccc2[nH]1 [Compound 296] |
| < 100 nM | O=C(NC[C@H](O)CN1CCc2ccccc2C1)c1cc(NC2CCNC2)ncn1 (some centres unmarked) [Compound 209] |
| < 100 nM | CN(CCNc1cc(C(=O)NC[C@H](O)CN2CCc3ccccc3C2)ccn1)S(C)(=O)=O [Compound 262] |
| < 100 nM | CN1CC(Nc2cc(C(=O)NC[C@H](O)CN3CCc4ccccc4C3)ncn2)C1 [Compound 281] |
| < 100 nM | Cc1cnc(NC2CCOCC2)cc1C(=O)NC[C@H](O)CN1CCc2ccccc2C1 [Compound 307] |
| < 100 nM | C[C@@H]1COCCC1Nc1cccc(C(=O)NC[C@H](O)CN2CCc3ccccc3C2)c1 (some centres unmarked) [Compound 212] |
| < 100 nM | CC(=O)N1CC(Nc2cc(C(=O)NC[C@H](O)CN3CCc4ccccc4C3)ncn2)C1 [Compound 284, (S)-6-((1-acetylazetidin-3-yl)amino)-N-(3-(3,4-dihydroisoquinolin-2(1H)-yl)-2-hydroxypropyl)pyrimidine-4-carboxamide] |
| < 100 nM | O=C(NC[C@H](O)CN1CCc2ccccc2C1)c1cncc(NC2COC2)c1 [Compound 299] |
| < 100 nM | O=C(NC[C@H](O)CN1CCc2ccccc2C1)c1cc2cccc(Cl)c2[nH]1 [Compound 276] |
| < 100 nM | O=C(NC[C@H](O)CN1CCc2ccccc2C1)c1nc2cc(Br)ccc2[nH]1 [Compound 319] |
| < 100 nM | O=C(NC[C@H](O)CN1CCc2ccccc2C1)c1cc(NC2CNC2)ncn1 [Compound 280] |
| < 100 nM | COc1ccc2cc(C(=O)NC[C@H](O)CN3CCc4ccccc4C3)ccc2c1 [Compound 251] |
| < 100 nM | CS(=O)(=O)N1CCC(Oc2cc(C(=O)NC[C@H](O)CN3CCc4ccccc4C3)ccn2)CC1 [Compound 204] |
| 101 to 1000 nM | Cc1ncc(NC2CCNC2)cc1C(=O)NC[C@H](O)CN1CCc2ccccc2C1 (some centres unmarked) [Compound 310] |
| < 100 nM | CN1CCC(Nc2cc(C(=O)NC[C@H](O)CN3CCc4ccccc4C3)ccn2)C1 (some centres unmarked) [Compound 255] |
| < 100 nM | COc1ccc2oc(C(=O)NC[C@H](O)CN3CCc4ccccc4C3)cc2c1 [Compound 250] |
| < 100 nM | O=C(NC[C@H](O)CN1CCc2ccccc2C1)c1cncc(NC2CCOC2)c1 (some centres unmarked) [Compound 211] |
| < 100 nM | CS(=O)(=O)N1CC[C@H](Nc2cccc(C(=O)NC[C@H](O)CN3CCc4ccccc4C3)c2)C1 [Compound 268] |
| < 100 nM | Cn1nccc1Nc1cc(C(=O)NC[C@H](O)CN2CCc3ccccc3C2)ccn1 [Compound 325] |
| 101 to 1000 nM | O=C(NC[C@H](O)CN1CCc2ccccc2C1)c1ccc2[nH]nnc2c1 [Compound 305] |
